# Reference: PubChem BioAssay (NCI)
#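 Protocol summary: plate cells (96-well), add compound at 5 concentrations, incubate 48 h, interpolate endpoints linearly. TGI: concentration producing complete growth inhibition.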
# Tests used:
# Assay in all cases: NCI tumour cell line growth inhibition, 48 h
# 786-0 renal = test system: 786-0 renal
# A498 renal = test system: A498 renal
# A549 NSCLC = test system: A549 NSCLC
# ACHN renal = test system: ACHN renal
# BT-549 breast = test system: BT-549 breast
# CAKI-1 renal = test system: CAKI-1 renal
# CCRF-CEM leukemia = test system: CCRF-CEM leukemia
# COLO 205 colon = test system: COLO 205 colon
# DLD-1 colon = test system: DLD-1 colon
# DMS 114 small cell lung = test system: DMS 114 small cell lung
# DU-145 prostate = test system: DU-145 prostate
# EKVX NSCLC = test system: EKVX NSCLC
# HCC-2998 colon = test system: HCC-2998 colon
# HCT-116 colon = test system: HCT-116 colon
# HCT-15 colon = test system: HCT-15 colon
# HL-60(TB) leukemia = test system: HL-60(TB) leukemia
# HOP-62 NSCLC = test system: HOP-62 NSCLC
# HOP-92 NSCLC = test system: HOP-92 NSCLC
# HS 578T breast = test system: HS 578T breast
# HT29 colon = test system: HT29 colon
# IGROV1 ovarian = test system: IGROV1 ovarian
# K-562 leukemia = test system: K-562 leukemia
# KM12 colon = test system: KM12 colon
# KM20L2 colon = test system: KM20L2 colon
# LOX IMVI melanoma = test system: LOX IMVI melanoma
# LXFL 529 NSCLC = test system: LXFL 529 NSCLC
# M14 melanoma = test system: M14 melanoma
# M19-MEL melanoma = test system: M19-MEL melanoma
# MALME-3M melanoma = test system: MALME-3M melanoma
# MCF7 breast = test system: MCF7 breast
# MDA-MB-435 = test system: MDA-MB-435
# MDA-N = test system: MDA-N
# MOLT-4 leukemia = test system: MOLT-4 leukemia
# NCI-H226 lung = test system: NCI-H226 lung
# NCI-H23 lung = test system: NCI-H23 lung
# NCI-H460 lung = test system: NCI-H460 lung
# NCI-H522 lung = test system: NCI-H522 lung
# NCI/ADR-RES ovarian = test system: NCI/ADR-RES ovarian
# OVCAR-3 ovarian = test system: OVCAR-3 ovarian
# OVCAR-4 ovarian = test system: OVCAR-4 ovarian
# OVCAR-5 ovarian = test system: OVCAR-5 ovarian
# OVCAR-8 ovarian = test system: OVCAR-8 ovarian
# PC-3 prostate = test system: PC-3 prostate
# RPMI-8226 leukemia = test system: RPMI-8226 leukemia
# RXF 393 renal = test system: RXF 393 renal
# SF-268 CNS = test system: SF-268 CNS
# SF-295 CNS = test system: SF-295 CNS
# SF-539 CNS = test system: SF-539 CNS
# SK-MEL-2 melanoma = test system: SK-MEL-2 melanoma
# SK-MEL-28 melanoma = test system: SK-MEL-28 melanoma
# SK-MEL-5 melanoma = test system: SK-MEL-5 melanoma
# SK-OV-3 ovarian = test system: SK-OV-3 ovarian
# SN12C renal = test system: SN12C renal
# SNB-19 CNS = test system: SNB-19 CNS
# SNB-75 CNS = test system: SNB-75 CNS
# SNB-78 CNS = test system: SNB-78 CNS
# SW-620 colon = test system: SW-620 colon
# T-47D breast = test system: T-47D breast
# TK-10 renal = test system: TK-10 renal
# U251 CNS = test system: U251 CNS
# UACC-257 melanoma = test system: UACC-257 melanoma
# UACC-62 melanoma = test system: UACC-62 melanoma
# UO-31 renal = test system: UO-31 renal
# DMS 273 small cell lung = test system: DMS 273 small cell lung
# SR leukemia = test system: SR leukemia
# XF 498 CNS = test system: XF 498 CNS
# HOP-18 NSCLC = test system: HOP-18 NSCLC
smiles,measurement,setting,value
Cc1nc(-n2nc(-c3ccccc3)cc2-c2ccccc2)sc1C(/C=C\c1ccc([N+](=O)[O-])cc1)=N/NC(=S)NN,TGI,786-0 renal,46 µM
same,TGI,A498 renal,> 100 µM
same,TGI,A549 NSCLC,> 100 µM
same,TGI,ACHN renal,> 82 µM
same,TGI,BT-549 breast,49.2 µM
same,TGI,CAKI-1 renal,> 56.5 µM
same,TGI,CCRF-CEM leukemia,> 100 µM
same,TGI,COLO 205 colon,> 31.6 µM
same,TGI,DLD-1 colon,48.6 µM
same,TGI,DMS 114 small cell lung,> 100 µM
same,TGI,DU-145 prostate,98.9 µM
same,TGI,EKVX NSCLC,> 100 µM
same,TGI,HCC-2998 colon,40.3 µM
same,TGI,HCT-116 colon,41 µM
same,TGI,HCT-15 colon,56.6 µM
same,TGI,HL-60(TB) leukemia,> 87.2 µM
same,TGI,HOP-62 NSCLC,52.2 µM
same,TGI,HOP-92 NSCLC,> 100 µM
same,TGI,HS 578T breast,> 100 µM
same,TGI,HT29 colon,> 72 µM
same,TGI,IGROV1 ovarian,> 72 µM
same,TGI,K-562 leukemia,> 100 µM
same,TGI,KM12 colon,> 100 µM
same,TGI,KM20L2 colon,> 100 µM
same,TGI,LOX IMVI melanoma,> 66.5 µM
same,TGI,LXFL 529 NSCLC,> 100 µM
same,TGI,M14 melanoma,> 80.1 µM
same,TGI,M19-MEL melanoma,> 100 µM
same,TGI,MALME-3M melanoma,> 100 µM
same,TGI,MCF7 breast,35.1 µM
same,TGI,MDA-MB-435,> 100 µM
same,TGI,MDA-N,50.7 µM
same,TGI,MOLT-4 leukemia,> 100 µM
same,TGI,NCI-H226 lung,> 86.6 µM
same,TGI,NCI-H23 lung,60.6 µM
same,TGI,NCI-H460 lung,> 66.7 µM
same,TGI,NCI-H522 lung,42.3 µM
same,TGI,NCI/ADR-RES ovarian,85.3 µM
same,TGI,OVCAR-3 ovarian,> 70.7 µM
same,TGI,OVCAR-4 ovarian,> 100 µM
same,TGI,OVCAR-5 ovarian,> 65.4 µM
same,TGI,OVCAR-8 ovarian,28.6 µM
same,TGI,PC-3 prostate,> 100 µM
same,TGI,RPMI-8226 leukemia,> 100 µM
same,TGI,RXF 393 renal,> 59 µM
same,TGI,SF-268 CNS,> 61.3 µM
same,TGI,SF-295 CNS,> 100 µM
same,TGI,SF-539 CNS,> 61.3 µM
same,TGI,SK-MEL-2 melanoma,98.5 µM
same,TGI,SK-MEL-28 melanoma,> 100 µM
same,TGI,SK-MEL-5 melanoma,> 53.4 µM
same,TGI,SK-OV-3 ovarian,> 100 µM
same,TGI,SN12C renal,> 31.6 µM
same,TGI,SNB-19 CNS,> 80 µM
same,TGI,SNB-75 CNS,> 100 µM
same,TGI,SNB-78 CNS,> 100 µM
same,TGI,SW-620 colon,> 100 µM
same,TGI,T-47D breast,87.7 µM
same,TGI,TK-10 renal,> 59.2 µM
same,TGI,U251 CNS,> 100 µM
same,TGI,UACC-257 melanoma,> 67.7 µM
same,TGI,UACC-62 melanoma,> 57.7 µM
same,TGI,UO-31 renal,> 58.3 µM
COc1ccc(-c2oc(C=Nc3ccccc3)c([N+](=O)[O-])c2-c2ccc(OC)c(OC)c2)cc1OC,TGI,786-0 renal,> 100 µM
same,TGI,A549 NSCLC,> 100 µM
same,TGI,ACHN renal,> 100 µM
same,TGI,CAKI-1 renal,> 100 µM
same,TGI,COLO 205 colon,> 100 µM
same,TGI,DLD-1 colon,> 100 µM
same,TGI,DMS 114 small cell lung,> 100 µM
same,TGI,DMS 273 small cell lung,> 100 µM
same,TGI,HCC-2998 colon,> 100 µM
same,TGI,HCT-116 colon,> 100 µM
same,TGI,HCT-15 colon,> 100 µM
same,TGI,HL-60(TB) leukemia,> 100 µM
same,TGI,HOP-62 NSCLC,> 100 µM
same,TGI,HOP-92 NSCLC,> 100 µM
same,TGI,HT29 colon,> 100 µM
same,TGI,IGROV1 ovarian,> 100 µM
same,TGI,K-562 leukemia,> 100 µM
same,TGI,KM12 colon,> 100 µM
same,TGI,KM20L2 colon,> 100 µM
same,TGI,LOX IMVI melanoma,> 100 µM
same,TGI,LXFL 529 NSCLC,> 100 µM
same,TGI,M14 melanoma,> 100 µM
same,TGI,M19-MEL melanoma,> 100 µM
same,TGI,MALME-3M melanoma,> 100 µM
same,TGI,MOLT-4 leukemia,> 100 µM
same,TGI,NCI-H226 lung,> 100 µM
same,TGI,NCI-H23 lung,> 100 µM
same,TGI,NCI-H460 lung,> 100 µM
same,TGI,NCI-H522 lung,> 100 µM
same,TGI,OVCAR-3 ovarian,> 100 µM
same,TGI,OVCAR-4 ovarian,> 100 µM
same,TGI,OVCAR-5 ovarian,> 100 µM
same,TGI,OVCAR-8 ovarian,> 100 µM
same,TGI,RPMI-8226 leukemia,> 100 µM
same,TGI,RXF 393 renal,> 100 µM
same,TGI,SF-268 CNS,> 100 µM
same,TGI,SF-295 CNS,> 100 µM
same,TGI,SF-539 CNS,> 100 µM
same,TGI,SK-MEL-28 melanoma,> 100 µM
same,TGI,SK-MEL-5 melanoma,> 100 µM
same,TGI,SK-OV-3 ovarian,> 100 µM
same,TGI,SN12C renal,> 100 µM
same,TGI,SNB-19 CNS,> 100 µM
same,TGI,SNB-75 CNS,> 100 µM
same,TGI,SNB-78 CNS,> 100 µM
same,TGI,SR leukemia,> 100 µM
same,TGI,SW-620 colon,> 100 µM
same,TGI,TK-10 renal,> 100 µM
same,TGI,U251 CNS,> 100 µM
same,TGI,UACC-257 melanoma,> 100 µM
same,TGI,UACC-62 melanoma,> 100 µM
same,TGI,UO-31 renal,> 100 µM
same,TGI,XF 498 CNS,> 100 µM
CCCCCCCCCCCCCC(=O)OCC1OC(=O)C(O)C1O (stereo not drawn),TGI,786-0 renal,> 100 µM
same,TGI,A498 renal,> 100 µM
same,TGI,A549 NSCLC,> 100 µM
same,TGI,ACHN renal,> 100 µM
same,TGI,CAKI-1 renal,> 100 µM
same,TGI,CCRF-CEM leukemia,> 100 µM
same,TGI,COLO 205 colon,> 100 µM
same,TGI,DLD-1 colon,> 100 µM
same,TGI,DMS 114 small cell lung,> 100 µM
same,TGI,EKVX NSCLC,> 100 µM
same,TGI,HCC-2998 colon,> 100 µM
same,TGI,HCT-116 colon,> 100 µM
same,TGI,HL-60(TB) leukemia,> 100 µM
same,TGI,HOP-18 NSCLC,> 100 µM
same,TGI,HOP-62 NSCLC,> 100 µM
same,TGI,HOP-92 NSCLC,> 100 µM
same,TGI,HT29 colon,> 100 µM
same,TGI,IGROV1 ovarian,> 100 µM
same,TGI,K-562 leukemia,> 100 µM
same,TGI,KM12 colon,> 100 µM
same,TGI,KM20L2 colon,> 100 µM
same,TGI,LOX IMVI melanoma,> 100 µM
same,TGI,LXFL 529 NSCLC,> 100 µM
same,TGI,M14 melanoma,> 100 µM
same,TGI,M19-MEL melanoma,> 100 µM
same,TGI,MALME-3M melanoma,> 100 µM
same,TGI,MOLT-4 leukemia,> 100 µM
same,TGI,NCI-H226 lung,> 100 µM
same,TGI,NCI-H23 lung,> 100 µM
same,TGI,NCI-H522 lung,> 100 µM
same,TGI,OVCAR-3 ovarian,> 100 µM
same,TGI,OVCAR-4 ovarian,> 100 µM
same,TGI,OVCAR-5 ovarian,> 100 µM
same,TGI,OVCAR-8 ovarian,> 100 µM
same,TGI,RPMI-8226 leukemia,> 100 µM
same,TGI,SF-268 CNS,> 100 µM
same,TGI,SF-295 CNS,> 100 µM
same,TGI,SF-539 CNS,> 100 µM
same,TGI,SK-MEL-28 melanoma,> 100 µM
same,TGI,SK-MEL-5 melanoma,> 100 µM
same,TGI,SK-OV-3 ovarian,> 100 µM
same,TGI,SN12C renal,> 100 µM
same,TGI,SNB-19 CNS,> 100 µM
same,TGI,SNB-75 CNS,> 100 µM
same,TGI,SR leukemia,> 100 µM
same,TGI,SW-620 colon,> 100 µM
same,TGI,TK-10 renal,> 100 µM
same,TGI,U251 CNS,> 100 µM
same,TGI,UACC-257 melanoma,> 100 µM
same,TGI,UACC-62 melanoma,> 100 µM
same,TGI,UO-31 renal,> 100 µM
same,TGI,XF 498 CNS,> 100 µM
